{"source": "patent US20230165836A1", "about": "“ALPHA-2 ADRENERGIC RECEPTOR AGONISTS FOR THE TREATMENT OF CANCER” (UNIVERSITÉ CATHOLIQUE DE LOUVAIN, priority 2020, published 2023)", "key": {"[1]": {"conditions": "stated without a test; cited from earlier work"}, "CT26 colon cancer": {"test_system": "CT26 colon cancer", "test": "CT26 colon cancer tumor growth (FIG. 25B)", "format": "in vivo, mice", "conditions": "5 mg/kg, i.p", "experimental": "(§1) FIGS. 25A-B is a set of curves showing the tumor growth of MC38 (FIG. 25A) or CT26 (FIG. 25B) colon cancer in mice treated with PBS (Control; closed circles), clonidine (5 mg/kg, i.p; closed squares) or apraclonidine (5 mg/kg, i.p; closed triangles)."}, "MC38 colon cancer": {"test_system": "MC38 colon cancer", "test": "MC38 colon cancer tumor growth (FIG. 25A)", "format": "in vivo, mice", "conditions": "5 mg/kg, i.p", "experimental": "as §1"}, "cholangiocarcinoma": {"test_system": "cholangiocarcinoma", "conditions": "in vitro; Kanno et al., Hepatology, 2002; cited from earlier work"}}}
{"molecule": "Nc1cc(Cl)c(N=C2NCCN2)c(Cl)c1", "note": "[apraclonidine]", "values": [{"measurement": "crossing of the blood-brain barrier", "setting": "[1]", "value": "does not cross the blood-brain barrier"}, {"measurement": "tumor growth", "setting": "CT26 colon cancer", "value": "anti-tumor effect"}, {"measurement": "tumor growth", "setting": "MC38 colon cancer", "value": "anti-tumor effect"}]}
{"molecule": "brimonidine tartrate [UK14,304]", "values": [{"measurement": "cholangiocarcinoma growth", "setting": "cholangiocarcinoma", "value": "significantly decreases cholangiocarcinoma growth"}]}
